In brackets after ≈: the same amount, converted by molar mass. Where two headings read alike, the source gives them in different places.
Tests used:
[1] = Stability in solution at pH 1 (HPLC purity over time); format: physicochemical; conditions: for Purity of the hybrid molecules (as a percentage) as a function of time (hours): pH 1, 37° C.
Method: The stability of the aminoquinoline-cephalosporin_hybrid molecules given as examples was determined in solution at 37° C., at physiological pH (pH 7, phosphate buffer/acetonitrile, 75/25 v/v) and at acidic pH (pH 1, 0.1 M HCl/ethanol, 70/30 v/v) by high pressure liquid chromatography coupled to a UV-visible detector (Beckman Coulter ODS C18 column, 5 μm, 4.6×250 mm; eluents: A: 0.1% TFA, B: CH3CN/H2O 90/10 0.1% TFA, gradient: from 10% to 100% of B in 30 minutes, and then 100% of B for 10 minutes, flow rate 1 mL/minutes, λ=254 nm, volume injected: 10 μL).

[2] = test system: Staphylococcus aureus MSSA CIP 4.83; assay: Antibacterial activity (MIC/MBC); format: cell-based; conditions: for MBC: read-out: MBC
[3] = test system: S. pneumoniae PSSP CIP 6.92; assay: Antibacterial activity (MIC/MBC); format: cell-based; conditions: Streptococcus pneumoniae, CIP6
[4] = test system: S. pneumoniae PRSP CIP 104471; assay: Antibacterial activity (MIC/MBC); format: cell-based, Streptococcus pneumoniae; conditions: Streptococcus pneumoniae; for MIC: read-out: MIC
[5] = test system: S. pneumoniae PRSP clinical isolate; assay: Antibacterial activity (MIC/MBC); format: cell-based, Streptococcus pneumoniae; conditions: Streptococcus pneumoniae; for MIC: PRSP
S. pyogenes CIP 56.41T = assay: Antibacterial activity (MIC/MBC); format: cell-based, Streptococcus pyogenes; conditions: Streptococcus pyogenes, CIP56, S. pyogenes CIP 56.41T; for MIC: read-out: MIC
[6] = test system: E. faecalis VRE CIP 104676; assay: Antibacterial activity (MIC/MBC); format: cell-based, Enterococcus faecalis; conditions: Enterococcus faecalis, E. faecalis VRE CIP 104676
H. influenzae CIP 102514 = assay: Antibacterial activity (MIC/MBC); format: cell-based, Haemophilus influenzae; conditions: Haemophilus influenzae, CIP102514
M. catarrhalis CIP73.21T = assay: Antibacterial activity (MIC/MBC); format: cell-based; conditions: Moraxella catarrhalis
[7] = test system: Staphylococcus aureus MSSA 53.154; assay: Murine experimental septicaemia, in vivo efficacy; parameters: species or system mice; conditions: sc, mice, subcutaneously at 1 and 6 h post infection, survival on day 9, hybrid molecules formulated in water as their sodium salt, read-out: ED50
Method: Experimental septicaemia was induced in mice as follows. Briefly, male Swiss OF1 mice (IFFA CREDO-Charles River) weighing 18 to 20 grams were infected intraperitoneally with 0.5 mL of a bacterial suspension containing 8.5×10^7 cfu of Staphylococcus aureus MSSA 53.154 (Institut Pasteur). The hybrid molecules were administered subcutaneously at 1 and 6 h post infection. Control and treatment groups at each dose were composed of seven mice. All the infected but untreated control mice died within 9 days. The 50% effective dose (ED50) values were calculated by a computerized program (GraphPad) from the survival rates on day 9 after infection.

[8] = test system: two strains of penicillin-resistant Streptococcus pneumoniae PRSP (CIP 104471 and a clinical isolate); assay: Antibacterial activity (MIC/MBC), summary in text; format: cell-based; conditions: S. pneumoniae PRSP (CIP 104471 and a clinical isolate)
Oral toxicity in mice = format: in vivo; conditions: counted on day 30
Method: The test compound: PA 1046 (example 5) was emulsified in a mixture of Tween 80/methylcellulose in water (0.5% of Tween 80, 0.6% of methylcellulose and 98.9% of water) at different concentrations. The emulsion was administered orally to 6-week-old female Swiss CD1 mice (Janvier) on day 0 and on day 2. The number of survival mice was counted on day 30.

[9] = test system: Human lung fibroblast cells (ATCC CCL-171); assay: Cytotoxicity (MTT) assay; conditions: human, 18 hr
Method: Cellular toxicity was measured by a colorimetric assay that makes use of the tetrazolium salt, MTT. Human lung fibroblast cells (ATCC CCL-171) were plated in 96-well plates at 10^4 cells per well and incubated under 5% CO2 at 37° C. for 24 hr to allow adherence of cells to the plate. Test compounds were prepared as a stock solution at 1 mg/mL in 1% DMSO/water and diluted with water for the serial dilutions (500-7.8 μg/mL). Cells underwent a 18 hr treatment under 5% CO2 at 37° C. with experimental drugs. Corresponding controls received either no drug treatment or treatment with SDS (sodium dodecyl sulfate). The optical density of each sample was read on a microplate spectrophotometer reader at 600 nm and cell survival was expressed as a fraction of that of untreated controls. A drug is said cytotoxic when this fraction is ≦−30%

[10] = S. aureus CIP 4.83, without serum (Table VI)
[11] = Staphylococcus aureus, S. aureus CIP 4.83, +50% human serum, read-out: MIC in the presence of human serum
[12] = Staphylococcus aureus, S. aureus MSSA CIP 4.83
[13] = Staphylococcus aureus, S. aureus MSSA CIP 4.83, read-out: MIC
[14] = +50% human serum, read-out: MIC in the presence of human serum
[15] = without serum (Table VI), read-out: MIC

Structure (SMILES)	MIC [2, 10] [µg/mL]	MIC [2, 11] [µg/mL]	MBC [2, 12] [µg/mL]	MIC [2, 13] [µg/mL]	MBC [3] [µg/mL]	MIC [3] [µg/mL]	MBC [4] [µg/mL]	MIC [4] [µg/mL]	MBC [5] [µg/mL]	MIC [5, 14] [µg/mL]	MIC ([5]; read-out: MIC) [µg/mL]	MIC [5, 15] [µg/mL]	MBC (S. pyogenes CIP 56.41T) [µg/mL]	MIC (S. pyogenes CIP 56.41T) [µg/mL]	MBC [6] [µg/mL]	MBC (M. catarrhalis CIP73.21T) [µg/mL]	MIC (M. catarrhalis CIP73.21T) [µg/mL]	ED50 [7] [mg/kg]	further results
CO/N=C(\C(=O)N[C@@H]1C(=O)N2C(C(=O)O)=C(CSc3nc(=O)c(=O)[nH]n3C)CS[C@H]12)c1csc(N)n1 [Ceftriaxone, reference compound]	0.20 (≈ 0.361 µM)	25	> 50	0.2 (≈ 0.361 µM)	0.006 (≈ 0.0108 µM)	0.006 (≈ 0.0108 µM)	0.39 (≈ 0.703 µM)	0.05 (≈ 0.0902 µM)	0.78 (≈ 1.41 µM)	12.5	0.39 (≈ 0.703 µM)	0.78 (≈ 1.41 µM)	0.006 (≈ 0.0108 µM)	0.006 (≈ 0.0108 µM)	50 (≈ 90.2 µM)	0.0015 (≈ 0.0027 µM)	< 0.01	0.09	half-life ([1]; 0.1 M HCl/ethanol solution, pH 1 in solution at 37° C.): < 2 h; Purity of the hybrid molecules (as a percentage) as a function of time (hours) ([1]; time 0 h): 100%; Purity of the hybrid molecules (as a percentage) as a function of time (hours) ([1]; time 1 h): 67%; Purity of the hybrid molecules (as a percentage) as a function of time (hours) ([1]; time 2 h): 46%; Purity of the hybrid molecules (as a percentage) as a function of time (hours) ([1]; time 4 h): 21%; Purity of the hybrid molecules (as a percentage) as a function of time (hours) ([1]; time 6 h): 4%; time until practically totally degraded ([1]; pH 1 in solution at 37° C.): less than 6 hr; MIC ([6]; read-out: MIC): 1.56 µg/mL (≈ 2.81 µM); MBC (H. influenzae CIP 102514; H. influenzae CIP 102514, read-out: MBC): 1.56 µg/mL (≈ 2.81 µM); MIC (H. influenzae CIP 102514; H. influenzae CIP 102514, read-out: MIC): < 0.001 µg/mL; MIC [8]: 0.05 µg/mL (≈ 0.0902 µM)
CC(=O)OCC1=C(C(=O)O)N2C(=O)[C@@H](NC(=O)CNc3ccnc4cc(Cl)ccc34)[C@H]2SC1 [PA 1046, (6R,7R)-3-Acetoxymethyl-7-[2-(7-chloroquinolin-4-ylamino)-acetylamino]-8-oxo-5-thia-1-aza-bicyclo[4.2.0]oct-2-ene-2-carboxylic acid]	0.2 (≈ 0.407 µM)	0.78	> 50	0.2 (≈ 0.407 µM)	0.012 (≈ 0.0244 µM)	0.012 (≈ 0.0244 µM)	0.025 (≈ 0.0509 µM)	0.006 (≈ 0.0122 µM)	0.1 (≈ 0.204 µM)	1.56	0.05 (≈ 0.102 µM)	0.2 (≈ 0.407 µM)	0.003 (≈ 0.00611 µM)	0.003 (≈ 0.00611 µM)	50 (≈ 102 µM)	0.78 (≈ 1.59 µM)	0.78 (≈ 1.59 µM)	0.04	MBC (H. influenzae CIP 102514): 25 µg/mL (≈ 50.9 µM); Survival (%) (Oral toxicity in mice; 100 mg/kg orally on day 0 and day 2, mice): 5/5 (100%); Survival (%) (Oral toxicity in mice; 200 mg/kg orally on day 0 and day 2, mice): 5/5 (100%); % of survival cells compared to the untreated controls ([9]; 7.8 μg/mL): −5.6%; % of survival cells compared to the untreated controls ([9]; 15.6 μg/mL): −8.3%; % of survival cells compared to the untreated controls ([9]; 31.2 μg/mL): −5.6%; % of survival cells compared to the untreated controls ([9]; 62.5 μg/mL): −9.0%; % of survival cells compared to the untreated controls ([9]; 125 μg/mL): −14.1%; % of survival cells compared to the untreated controls ([9]; 250 μg/mL): −17.8%; % of survival cells compared to the untreated controls ([9]; 500 μg/mL): −18.1%
